Results from ChEMBL document CHEMBL1130856, “A new series of cyclic amino acids as inhibitors of S-adenosyl L-methionine synthetase” (Bioorg Med Chem Lett, 1998).

Assays:
[1] = biological target: T1, S-adenosylmethionine synthase isoform type-1 (Rattus norvegicus, UniProt P13444); assay: Compound was evaluated for its inhibitory activity against recombinant S-adenosyl L-Methionine synthetase (alpha-isoform) in rat liver
[2] = biological target: T1, S-adenosylmethionine synthase isoform type-1; assay: Compound was evaluated for its inhibitory activity against recombinant S-adenosyl L-Methionine synthetase (alpha-isoform) in rat liver; No significant activity

T1 sequence (P13444 whole entry, canonical isoform): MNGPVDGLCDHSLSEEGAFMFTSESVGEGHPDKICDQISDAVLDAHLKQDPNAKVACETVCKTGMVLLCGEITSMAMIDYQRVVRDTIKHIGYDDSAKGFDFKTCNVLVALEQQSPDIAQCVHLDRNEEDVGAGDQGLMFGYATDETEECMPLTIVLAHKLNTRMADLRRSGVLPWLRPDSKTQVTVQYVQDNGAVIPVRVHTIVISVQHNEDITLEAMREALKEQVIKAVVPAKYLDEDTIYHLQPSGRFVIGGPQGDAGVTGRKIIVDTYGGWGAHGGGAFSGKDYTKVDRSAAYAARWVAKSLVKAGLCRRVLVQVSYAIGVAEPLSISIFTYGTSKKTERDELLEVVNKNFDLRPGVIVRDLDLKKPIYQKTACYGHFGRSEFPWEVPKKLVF

Question: With NC1(C(=O)O)CCOCC1 as the compound, how does the Ki [1] read?
Answer: Its Ki is 1000 µM.

Question: What does the source list for N[C@]1(C(=O)O)CCSC1?
Answer: Ki [2]: Not Active; Ki [1]: 1040 µM

Question: With NC1(C(=O)O)CCSCC1 as the compound, how does the Ki [1] read?
Answer: The Ki was 3000 µM.

Question: How did the Ki [2] turn out when N[C@]1(C(=O)O)CCOC1 was run?
Answer: The Ki was “Not Active”.

Question: What about the Ki [1] of the same compound?
Answer: The Ki was 750 µM.

Question: How did the Ki [1] turn out when NC1(C(=O)O)CCCC1 [CYCLOLEUCINE] was run?
Answer: The Ki was 516 µM.

Question: For CO/C=C\[C@H](N)C(=O)O, which Ki [1] is on record?
Answer: The Ki was 56 µM.
